Test results published in patent US20250326769A1, “HETEROAROMATIC MACROCYCLIC ETHER CHEMOTHERAPEUTIC AGENTS” (Nuvalent, Inc., priority 2022, published 2025).
Read-outs that look alike come from different tables or passages of the source.

Experiments:
Ba/F3 ETV6-TRKB = Ba/F3 ETV6-TRKB (Homo sapiens, UniProt Q16620); test: Ba/F3 cell proliferation assay, ETV6-TRKB; assay type: cell-based
Procedure, shortened: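 Ba/F3 cells retrovirally transduced with ETV6-TRKB and selected for IL-3-independent growth with puromycin were treated with 3-fold compound dilutions for 72 h. Viability read by CellTiter-Glo luminescence; IC50 from percent inhibition by four-parameter logistic fit.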

ALK I1171N/D1203N = ALK I1171N/D1203N (Homo sapiens (Human), UniProt Q9UM73, D1203N/I1171N); test: Biochemical kinase assay, ALK I1171N/D1203N; settings: apparent inhibitory constant, kinase domain, Morrison equation; read-out: ALK-I1171N-D1203N Ki^app
Procedure, shortened: (§1)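 Kinase domains (in enzyme solution: ALK I1171N/D1203N 4 nM, ROS1 0.6 nM, ROS1-G2032R 0.5 nM, TRKB 1.5 nM) were mixed with substrate solution holding 2 mM ATP and 26 μM AQT0101 (ALK, ROS1) or AQT0104 (TRKB). Initial rates from 120-min fluorescence kinetics at 30 °C were fitted to the Morrison equation (Ki^app).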

[1] = target: Ba/F3 EML4-ALK v1 I1171N/D1203N (Homo sapiens (Human), UniProt Q9HC35+Q9UM73, D1203N/I1171N); test: Ba/F3 cell proliferation assay, EML4-ALK v1 I1171N/D1203N; assay type: cell-based; settings: for IC50: Ba/F3 stable cells, 72 hours, CellTiter-Glo; for ETV6-TRKB / EML4-ALK v1 I1171N/D1203N: TRKB selectivity, ratio of Ba/F3 IC50 values
Procedure, shortened: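 Ba/F3 cells made IL-3-independent by retroviral EML4-ALK v1 I1171N/D1203N and selected with puromycin, then treated with 3-fold compound dilutions for 72 h. Viability by CellTiter-Glo luminescence; IC50 from four-parameter logistic fit.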

Ba/F3 EML4-ALK v1 I1171N = Ba/F3 EML4-ALK v1 I1171N (Homo sapiens (Human), UniProt Q9HC35+Q9UM73, I1171N); test: Ba/F3 cell proliferation assay, EML4-ALK v1 I1171N; assay type: cell-based; settings: for IC50: Ba/F3 stable cells, 72 hours, CellTiter-Glo; for ETV6-TRKB / EML4-ALK v1 I1171N: TRKB selectivity, ratio of Ba/F3 IC50 values
Procedure, shortened: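 Ba/F3 cells stably transformed with retroviral EML4-ALK v1 I1171N, selected by IL-3 withdrawal and puromycin, grown IL-3-free. Compounds added as 3-fold dilution series, 72 h incubation; viability by CellTiter-Glo luminescence. IC50 from percent inhibition by four-parameter logistic fit, binned A/B/C.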

TRKB-wt = TRKB-wt (Homo sapiens (Human), UniProt Q16620); test: Biochemical kinase assay, TRKB-wt; settings: apparent inhibitory constant, kinase domain, Morrison equation; read-out: TRKB-wt Ki^app
Procedure, shortened: as §1

ROS1-G2032R = ROS1-G2032R (Homo sapiens (Human), UniProt P08922, G2032R); test: Biochemical kinase assay, ROS1-G2032R; settings: apparent inhibitory constant, kinase domain, Morrison equation; read-out: ROS1-G2032R Ki^app
Method: (§2) First, 250 nL of compound dissolved in DMSO (100-fold of the desired concentration) was dispensed into a 384-well plate. A 12.5 μL substrate solution containing ATP (2 mM) and fluorogenic phosphorylation substrate AQT0101 ([…] for ALK and ROS, AssayQuant) or AQT0104 (26 μM for TRKB, AssayQuant) in buffer (50 mM HEPES pH 7.5, […], 0.5 mM EGTA, 10 mM MgCl2) was added and mixed thoroughly. Then, a 12.5 μL kinase solution containing ALK (1.5 nM, Carna, 08-518), ALK I1171N/D1203N (4 nM, SignalChem, custom-made), ROS1 (0.6 nM, Carma, 08-163), ROS1-G2032R (0.5 nM, SignalChem, R14-121BG), or TRKB-wt (1.5 nM, SignalChem, N17-11G) kinase domains in buffer ([…] pH 7.5, 0.01% Brij-[…], 0.4 mg/mL BSA, 0.5 mM EGTA, and 10 mM MgCl2) was added and mixed thoroughly. The plate was sealed and read by SpectraMax Paradigm at λ=485 nm every 2 minutes for 120 minutes at 30° C. Initial rates of reaction (v) were calculated from the change in fluorescence intensity over time during the initial, linear portion of the reaction. Finally, apparent inhibitory constants (Ki^app) were determined from regression of v and I (inhibitor concentration) to Morrison Equation (E=enzyme concentration): […]
(§3) Compound potency can be interpreted by binning Ki^app values against the targets: bin A for high potency, Ki^app<50 nM; bin B for medium potency, 50 nM≤Ki^app<500 nM; and bin C for low potency, Ki^app≥500 nM. […] “nd” means not determined.

ROS1 = ROS1 (Homo sapiens (Human), UniProt P08922); test: Biochemical kinase assay, ROS1-wt; settings: apparent inhibitory constant, kinase domain, Morrison equation; read-out: ROS1-wt Ki^app
Method: as §2, §3

[2] = Ba/F3 stable cells, 72 hours, CellTiter-Glo; read-out: ETV6-TRKB IC50

TRKB-wt, sequence (Q16620 538-807): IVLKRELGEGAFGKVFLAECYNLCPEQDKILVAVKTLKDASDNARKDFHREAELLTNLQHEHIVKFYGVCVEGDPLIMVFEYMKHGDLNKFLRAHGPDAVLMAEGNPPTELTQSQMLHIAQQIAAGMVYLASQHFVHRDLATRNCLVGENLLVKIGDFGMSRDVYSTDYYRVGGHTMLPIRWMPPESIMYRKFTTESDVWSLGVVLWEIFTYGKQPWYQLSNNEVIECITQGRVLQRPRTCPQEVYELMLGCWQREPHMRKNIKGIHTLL
Ba/F3 EML4-ALK v1 I1171N/D1203N, sequence (Q9UM73 other isoform, or with tags, fused parts or gaps I1171N/D1203N): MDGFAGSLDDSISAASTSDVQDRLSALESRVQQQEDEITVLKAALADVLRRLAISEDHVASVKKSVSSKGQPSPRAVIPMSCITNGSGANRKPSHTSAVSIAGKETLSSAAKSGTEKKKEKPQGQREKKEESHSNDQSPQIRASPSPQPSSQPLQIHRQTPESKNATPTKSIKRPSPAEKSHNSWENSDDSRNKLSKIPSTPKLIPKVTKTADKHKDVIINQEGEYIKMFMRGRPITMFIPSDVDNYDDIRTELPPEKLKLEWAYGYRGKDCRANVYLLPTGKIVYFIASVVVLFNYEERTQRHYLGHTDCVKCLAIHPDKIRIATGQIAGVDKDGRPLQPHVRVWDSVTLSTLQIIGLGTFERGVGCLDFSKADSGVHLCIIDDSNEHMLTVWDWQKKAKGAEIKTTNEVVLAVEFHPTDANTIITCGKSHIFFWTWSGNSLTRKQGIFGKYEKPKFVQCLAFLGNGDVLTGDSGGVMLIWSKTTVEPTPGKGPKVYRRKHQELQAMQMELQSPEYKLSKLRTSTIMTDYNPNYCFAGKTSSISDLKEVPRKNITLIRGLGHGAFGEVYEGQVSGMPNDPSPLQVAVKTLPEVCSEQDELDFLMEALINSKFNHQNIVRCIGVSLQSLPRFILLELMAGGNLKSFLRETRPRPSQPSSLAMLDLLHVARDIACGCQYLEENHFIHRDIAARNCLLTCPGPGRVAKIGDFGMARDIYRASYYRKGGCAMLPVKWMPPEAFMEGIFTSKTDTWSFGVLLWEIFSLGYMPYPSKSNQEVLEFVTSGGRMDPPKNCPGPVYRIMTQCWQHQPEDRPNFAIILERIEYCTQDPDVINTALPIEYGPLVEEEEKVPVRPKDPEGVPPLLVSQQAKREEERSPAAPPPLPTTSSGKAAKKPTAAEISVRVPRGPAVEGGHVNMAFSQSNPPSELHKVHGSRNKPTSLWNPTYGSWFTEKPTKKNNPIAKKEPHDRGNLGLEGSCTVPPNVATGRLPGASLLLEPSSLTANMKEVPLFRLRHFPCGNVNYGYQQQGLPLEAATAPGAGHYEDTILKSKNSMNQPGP
Ba/F3 ETV6-TRKB, sequence (Q16620 32-822 limits assumed, change not shown): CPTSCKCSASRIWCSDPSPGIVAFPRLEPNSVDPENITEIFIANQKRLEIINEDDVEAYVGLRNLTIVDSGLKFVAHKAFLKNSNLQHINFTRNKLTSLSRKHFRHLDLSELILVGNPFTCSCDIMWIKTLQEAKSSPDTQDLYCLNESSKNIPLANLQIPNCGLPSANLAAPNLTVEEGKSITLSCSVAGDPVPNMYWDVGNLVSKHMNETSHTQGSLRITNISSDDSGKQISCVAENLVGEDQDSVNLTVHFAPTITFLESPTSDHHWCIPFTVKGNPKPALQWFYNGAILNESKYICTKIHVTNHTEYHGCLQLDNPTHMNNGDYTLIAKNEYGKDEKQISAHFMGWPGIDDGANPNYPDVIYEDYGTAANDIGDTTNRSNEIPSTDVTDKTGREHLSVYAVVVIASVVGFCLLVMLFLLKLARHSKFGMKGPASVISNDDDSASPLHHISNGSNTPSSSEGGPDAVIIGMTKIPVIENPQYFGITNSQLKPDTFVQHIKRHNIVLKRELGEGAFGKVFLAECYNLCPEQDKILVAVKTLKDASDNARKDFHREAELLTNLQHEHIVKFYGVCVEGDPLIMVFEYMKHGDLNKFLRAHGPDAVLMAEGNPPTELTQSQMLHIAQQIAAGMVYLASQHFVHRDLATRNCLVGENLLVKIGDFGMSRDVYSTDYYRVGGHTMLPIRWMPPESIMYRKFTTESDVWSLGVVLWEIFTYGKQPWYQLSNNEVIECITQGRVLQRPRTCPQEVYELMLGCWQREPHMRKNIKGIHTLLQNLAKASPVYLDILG
ALK I1171N/D1203N, sequence (Q9UM73 1116-1392 I1171N/D1203N): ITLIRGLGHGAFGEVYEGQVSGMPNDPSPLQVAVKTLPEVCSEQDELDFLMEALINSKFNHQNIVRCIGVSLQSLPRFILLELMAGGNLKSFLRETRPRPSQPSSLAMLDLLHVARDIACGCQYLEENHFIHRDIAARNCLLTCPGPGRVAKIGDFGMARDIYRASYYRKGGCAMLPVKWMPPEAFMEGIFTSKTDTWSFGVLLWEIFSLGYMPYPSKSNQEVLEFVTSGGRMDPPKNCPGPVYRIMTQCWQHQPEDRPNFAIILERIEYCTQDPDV
Ba/F3 EML4-ALK v1 I1171N, sequence (Q9UM73 other isoform, or with tags, fused parts or gaps I1171N): as the sequence (Q9UM73 other isoform, or with tags, fused parts or gaps I1171N/D1203N) above, with N642D counted along it
ROS1-G2032R, sequence (P08922 1945-2222 G2032R): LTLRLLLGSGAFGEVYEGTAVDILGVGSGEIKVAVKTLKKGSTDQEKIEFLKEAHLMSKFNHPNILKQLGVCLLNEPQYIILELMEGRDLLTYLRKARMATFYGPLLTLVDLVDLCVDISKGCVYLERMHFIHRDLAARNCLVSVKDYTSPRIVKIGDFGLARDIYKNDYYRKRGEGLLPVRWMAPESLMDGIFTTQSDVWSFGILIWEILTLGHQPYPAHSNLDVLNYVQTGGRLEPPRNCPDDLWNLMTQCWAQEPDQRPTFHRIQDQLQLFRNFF
ROS1, sequence (P08922 1945-2222): as the sequence (P08922 1945-2222 G2032R) above, with R88G counted along it

Cc1ocnc1-c1nn(CC2CC2)c2c1Cc1cccnc1-c1ccc(F)cc1[C@@H](C)Oc1cc-2cnc1N [Example 3, (20R)-3-(cyclopropylmethyl)-17-fluoro-20-methyl-5-(5-methyl-1,3-oxazol-4-yl)-21-oxa-3,4,12,24-tetraazapentacyclo[20.3.1.0^2,^6.0^8,^13.0^14,^19]hexacosa-1(25),2(6),4,8(13),9,11,14,16,18,22(26),23-undecaen-23-amine]
IC50 (Ba/F3 ETV6-TRKB; [2]): > 500 nM | Ki (ALK I1171N/D1203N): < 50 nM | IC50 [1]: 0.1 to 50 nM | ETV6-TRKB / EML4-ALK v1 I1171N/D1203N [1]: B (bin B for high selectivity, ratio≥10-fold but<30) | IC50 (Ba/F3 EML4-ALK v1 I1171N): 0.1 to 50 nM | ETV6-TRKB / EML4-ALK v1 I1171N (Ba/F3 EML4-ALK v1 I1171N): A (bin A for very high selectivity, ratio≥30-fold) | Ki (TRKB-wt): 50 to 500 nM

C[C@H]1Oc2cc(cnc2N)-c2c(c(C#N)nn2CC2CC2)Cc2cccnc2-c2ccc(F)cc21 [Example 66, (R)-23-amino-3-(cyclopropylmethyl)-17-fluoro-20-methyl-21-oxa-3,4,12,24-tetraazapentacyclo[20.3.1.0^2,^6.0^8,^13.0^14,^19]hexacosa-1(25),2(6),4,8(13),9,11,14,16,18,22(26),23-undecaene-5-carbonitrile]
Ki (ROS1-G2032R): < 50 nM | IC50 [1]: > 500 nM | Ki (ROS1): < 50 nM | IC50 (Ba/F3 EML4-ALK v1 I1171N): 50 to 500 nM

C[C@H]1Oc2cc(cnc2N)-c2c(c(C(=O)N(C)C)nn2C2CCC2)Cc2cn(C)nc2-c2ccc(F)cc21 [Example 35, N,N-dimethyl-(R)-22-amino-3-cyclobutyl-16-fluoro-10-methyl-19-methyl-20-oxa-3,4,10,11,23-pentaazapentacyclo[19.3.1.0^2,^6.0^8,^12.0^13,^18]pentacosa-1(24),2(6),4,8,11,13,15,17,21(25),22-decaene-5-carboxamide]
IC50 (Ba/F3 ETV6-TRKB; [2]): > 500 nM | Ki (ALK I1171N/D1203N): < 50 nM | IC50 [1]: 0.1 to 50 nM | ETV6-TRKB / EML4-ALK v1 I1171N/D1203N [1]: A (bin A for very high selectivity, ratio≥30-fold) | IC50 (Ba/F3 EML4-ALK v1 I1171N): 0.1 to 50 nM | ETV6-TRKB / EML4-ALK v1 I1171N (Ba/F3 EML4-ALK v1 I1171N): A (bin A for very high selectivity, ratio≥30-fold) | Ki (TRKB-wt): 50 to 500 nM

C[C@H]1Oc2cc(cnc2N)-c2c(c(C(=O)N(C)C)nn2CC2CC2)Cc2cn(C)nc2-c2c(F)cc(F)cc21 [Example 32, N,N-dimethyl-(R)-22-amino-3-(cyclopropylmethyl)-14,16-difluoro-10-methyl-19-methyl-20-oxa-3,4,10,11,23-pentaazapentacyclo[19.3.1.0^2,^6.0^8,^12.0^13,^18]pentacosa-1(24),2(6),4,8,11,13,15,17,21(25),22-decaene-5-carboxamide]
IC50 (Ba/F3 ETV6-TRKB; [2]): > 500 nM | Ki (ALK I1171N/D1203N): < 50 nM | IC50 [1]: 0.1 to 50 nM | ETV6-TRKB / EML4-ALK v1 I1171N/D1203N [1]: A (bin A for very high selectivity, ratio≥30-fold) | IC50 (Ba/F3 EML4-ALK v1 I1171N): 0.1 to 50 nM | ETV6-TRKB / EML4-ALK v1 I1171N (Ba/F3 EML4-ALK v1 I1171N): A (bin A for very high selectivity, ratio≥30-fold) | Ki (TRKB-wt): ≥ 500 nM

CCn1nc(C(N)=O)c2c1-c1cnc(N)c(c1)O[C@H](C)c1cc(F)ccc1-c1nn(C)cc1C2 [Example 5, (R)-22-amino-3-ethyl-16-fluoro-10-methyl-19-methyl-20-oxa-3,4,10,11,23-pentaazapentacyclo[19.3.1.0^2,6.0^8,12.0^13,18]pentacosa-1(24),2(6),4,8,11.13,15,17,21(25),22-decaene-5-carboxamide]
IC50 (Ba/F3 ETV6-TRKB; [2]): 50 to 500 nM | Ki (ALK I1171N/D1203N): < 50 nM | IC50 [1]: 50 to 500 nM | ETV6-TRKB / EML4-ALK v1 I1171N/D1203N [1]: D (bin D for low selectivity, ratio<1) | IC50 (Ba/F3 EML4-ALK v1 I1171N): 0.1 to 50 nM | ETV6-TRKB / EML4-ALK v1 I1171N (Ba/F3 EML4-ALK v1 I1171N): C (bin C for moderate selectivity, ratio≥1 but<10) | Ki (TRKB-wt): < 50 nM

C[C@H]1Oc2cc(cnc2N)-c2c(c(C(=O)N(C)C)nn2CC2CC2)Cc2cccnc2-c2ccc(F)cc21 [Example 10, N,N-dimethyl-(R)-23-amino-3-(cyclopropylmethyl)-17-fluoro-20-methyl-21-oxa-3,4,12,24-tetraazapentacyclo[20.3.1.0^2,^6.0^8,^13.0^14,^19]hexacosa-1(25),2(6),4,8(13),9,11,14,16,18,22(26),23-undecaene-5-carboxamide]
IC50 (Ba/F3 ETV6-TRKB; [2]): > 500 nM | Ki (ALK I1171N/D1203N): < 50 nM | IC50 [1]: 0.1 to 50 nM | ETV6-TRKB / EML4-ALK v1 I1171N/D1203N [1]: A (bin A for very high selectivity, ratio≥30-fold) | IC50 (Ba/F3 EML4-ALK v1 I1171N): 0.1 to 50 nM | ETV6-TRKB / EML4-ALK v1 I1171N (Ba/F3 EML4-ALK v1 I1171N): A (bin A for very high selectivity, ratio≥30-fold) | Ki (TRKB-wt): 50 to 500 nM

C[C@H]1Oc2cc(cnc2N)-c2c(CC3CC3)nn(C(=O)N(C)C)c2Cc2cccnc2-c2ccc(F)cc21 [Example 20, (R)-5-(N,N-dimethylcarbamoyl)-3-(cyclopropylmethyl)-17-fluoro-20-methyl-21-oxa-4,5,12,24-tetraazapentacyclo[20.3.1.0^2,^6.0^8,^13.0^14,^19]hexacosa-1(25),2(6),3,8(13),9,11,14,16,18,22(26),23-undecaen-23-ylamine]
IC50 (Ba/F3 ETV6-TRKB; read-out: ETV6-TRKB IC50; Ba/F3 stable cells, 72 hours, CellTiter-Glo): 50 to 500 nM | Ki (ALK I1171N/D1203N): < 50 nM | IC50 [1]: 0.1 to 50 nM | ETV6-TRKB / EML4-ALK v1 I1171N/D1203N [1]: A (bin A for very high selectivity, ratio≥30-fold) | IC50 (Ba/F3 EML4-ALK v1 I1171N): 0.1 to 50 nM | ETV6-TRKB / EML4-ALK v1 I1171N (Ba/F3 EML4-ALK v1 I1171N): A (bin A for very high selectivity, ratio≥30-fold) | Ki (TRKB-wt): 50 to 500 nM

C[C@H]1Oc2cc(cnc2N)-c2c(c(C(=O)N(C)C)nn2CC2CC2)Cc2cccnc2-c2c(F)cc(F)cc21 [Example 45, N,N-dimethyl-(R)-23-amino-3-(cyclopropylmethyl)-15,17-difluoro-20-methyl-21-oxa-3,4,12,24-tetraazapentacyclo[20.3.1.0^2,^6.0^8,^13.0^14,^19]hexacosa-1(25),2(6),4,8(13),9,11,14,16, 18,22(26),23-undecaene-5-carboxamide]
IC50 (Ba/F3 ETV6-TRKB; [2]): > 500 nM | Ki (ALK I1171N/D1203N): < 50 nM | IC50 [1]: 0.1 to 50 nM | ETV6-TRKB / EML4-ALK v1 I1171N/D1203N [1]: A (bin A for very high selectivity, ratio≥30-fold) | IC50 (Ba/F3 EML4-ALK v1 I1171N): 50 to 500 nM | ETV6-TRKB / EML4-ALK v1 I1171N (Ba/F3 EML4-ALK v1 I1171N): B (bin B for high selectivity, ratio≥10-fold but<30) | Ki (TRKB-wt): ≥ 500 nM

CC(=O)c1nn(CC2CC2)c2c1Cc1cn(C)nc1-c1ccc(F)cc1[C@@H](C)Oc1cc-2cnc1N [Example 16, 1-[(19R)-22-amino-3-(cyclopropylmethyl)-16-fluoro-10,19-dimethyl-20-oxa-3.4.10,11,23-pentaazapentacyclo[19.3.1.0^2,6.0^8,12.0^13,18]pentacosa-1(24),2(6),4,8,11.13,15,17,21(25),22-decaen-5-yl]ethan-1-one]
IC50 (Ba/F3 ETV6-TRKB; [2]): > 500 nM | Ki (ALK I1171N/D1203N): 50 to 500 nM | IC50 [1]: 50 to 500 nM | ETV6-TRKB / EML4-ALK v1 I1171N/D1203N [1]: C (bin C for moderate selectivity, ratio≥1 but<10) | Ki (TRKB-wt): ≥ 500 nM
